These results are taken from patent publication US20260035363A1, “COMPOUNDS AND METHODS OF USE THEREOF AS ANTIBACTERIAL AGENTS” (priority 2019, published 2026).

≈ marks a conversion by molar mass, not a printed value. Read-outs that look alike come from different tables or passages of the source. Where only a bound is given, the exact number is not on record here.

For orientation: IC50 means the concentration needed to halve the response being measured.

Type in all cases: cell-based
The subject of assay [1] is Mycobacterium tuberculosis (Mtb-GFP; H37Rv pMSP12::GFP). As to the kind of experiment: microbe, parasite or virus in culture. The settings on record: 168 h, pH 6.8, read-out: Mtb Cho MITC95, cholesterol carbon source, pH 6.8, 7-day growth, GFP fluorescence, lowest concentration inhibiting 95% of growth.
For assay [2] the test system is unchanged. Nature of the assay: microbe, parasite or virus in culture. To be noted: 168 h, pH 6.8, read-out: Mtb Glu MITC95, glucose carbon source, pH 6.8, 7-day growth, GFP fluorescence, lowest concentration inhibiting 95% of growth.
Assay [3] concerns mitochondrial protein synthesis in HepG2 cells. As to the kind of experiment: Mitochondrial protein synthesis assay (COX-I to SDH-A ratio, In Cell ELISA). The settings on record: Homo sapiens, HepG2, 96 h, 4 days, ratio of COX-I to SDH-A levels, read-out: MPS IC50. How it is done:
Mitochondrial Protein Synthesis Assay
Inhibition of mitochondrial protein synthesis was assessed in HepG2 cells by comparing the levels of two subunits of oxidative phosphorylation enzyme complexes, subunit I of Complex IV (COX-I) and the 70 kDa subunit of Complex II (SDH-A). COX-I is mitochondrial DNA encoded and SDH-A is nuclear DNA encoded. HepG2 cells were seeded in 96-well collagen coated plates at 8,000 cells per well and exposed to 2-fold serial dilutions of compounds from 100 μM to 6.25 μM. Microtiter plates were incubated for approximately 5 replication cycles (4 days) prior to assessment of protein levels using a kit as described by the manufacturer (ab110217 MitoBiogenesis In Cell ELISA Kit, Abcam, Cambridge, MA). Inhibition of mitochondrial protein synthesis was expressed as a ratio of COX-1 to SDH-A levels.

As for `CN1CC(C)(C(F)(F)c2ccc(-c3ccc(C4=NO[C@@H](Cn5ccnn5)C4)cc3F)cc2)C1` [Example 10, 1-{[(5R)-3-{4′-[(1,3-Dimethylazetidin-3-yl)(difluoro)methyl]-2-fluoro[1,1′-biphenyl]-4-yl}-4,5-dihydro-1,2-oxazol-5-yl]methyl}-1H-1,2,3-triazole], the MIC in assay [1] and in assay [2] was 0.19 µM (≈ 0.0865 µg/mL) in each case. Besides, the half-maximal inhibitory concentration (IC50) in assay [3] turned out to be 22 µM.
`CN1CC(S(=O)(=O)c2ccc(-c3ccc(C4=NO[C@@H](CNS(C)(=O)=O)C4)cc3F)cc2)C1` [Example 11, N-({(5R)-3-[2-Fluoro-4′-(1-methylazetidine-3-sulfonyl)[1,1′-biphenyl]-4-yl]-4,5-dihydro-1,2-oxazol-5-yl}methyl)methanesulfonamide]: the MIC in assay [1] is 1.17 µM (≈ 0.563 µg/mL); in assay [2] it was 0.975 µM (≈ 0.47 µg/mL). For the same molecule, in assay [3], the half-maximal inhibitory concentration (IC50) is greater than 100 µM.
On to `CC1(c2nnc3cc(-c4ccc(C5=NO[C@@H](Cn6ccnn6)C5)cc4F)ccn23)CNC1` [Example 12, 7-(2-Fluoro-4-{(5R)-5-[(1H-1,2,3-triazol-1-yl)methyl]-4,5-dihydro-1,2-oxazol-3-yl}phenyl)-3-(3-methylazetidin-3-yl)[1,2,4]triazolo[4,3-a]pyridine], for which the MIC in assay [1] and in assay [2] was 0.78 µM (≈ 0.337 µg/mL) in each case. In addition, the IC50 in assay [3] is greater than 100 µM.
For `CN1CC(S(=O)(=O)c2ccc(-c3ccc(C4=NO[C@@H](CO)C4)cc3F)cc2)C1` [Example 13, [(5R)-3-[3-Fluoro-4-[4-(1-methylazetidin-3-yl)sulfonylphenyl]phenyl]-4,5-dihydroisoxazol-5-yl]methanol], the MIC came out at 1.2 µM (≈ 0.485 µg/mL) in assay [1] and 1 µM (≈ 0.404 µg/mL) in assay [2]. In assay [3], the IC50 is 24 µM.
Take `COC(=O)NC[C@H]1CC(c2ccc(-c3ccc(S(=O)(=O)C4(C)CN(C)C4)cc3)c(F)c2)=NO1` [Example 14, Methyl N-[[(5R)-3-[4-[4-(1,3-dimethylazetidin-3-yl)sulfonylphenyl]-3-fluoro-phenyl]-4,5-dihydroisoxazol-5-yl]methyl]carbamate]: the MIC in assay [1] and in assay [2] was 0.12 µM (≈ 0.0571 µg/mL) in each case. In addition, the concentration for half-maximal inhibition (IC50) in assay [3] was 42 µM.
`CN1CC(F)(C(F)(F)c2ccc(-c3ccc(C4=NO[C@@H](Cn5ccnn5)C4)cc3F)cc2)C1` [Example 15, (5R)-3-[4-[4-[Difluoro-(3-fluoro-1-methyl-azetidin-3-yl)methyl]phenyl]-3-fluoro-phenyl]-5-(triazol-1-ylmethyl)-4,5-dihydroisoxazole]: the MIC in assay [1] was determined as 0.055 µM (≈ 0.0253 µg/mL); in assay [2], 0.035 µM (≈ 0.0161 µg/mL). In assay [3], the IC50 turned out to be 4.3 µM.
As for `Cc1nnc2cc(-c3c(F)cc(C4=NO[C@@H](Cn5ccnn5)C4)cc3F)ccn12` [Example 16, (5R)-3-[3,5-Difluoro-4-(3-methyl-[1,2,4]triazolo[4,3-a]pyridin-7-yl)phenyl]-5-(triazol-1-ylmethyl)-4,5-dihydroisoxazole], the MIC was determined as 0.59 µM (≈ 0.233 µg/mL) in assay [1] and 0.39 µM (≈ 0.154 µg/mL) in assay [2]. The IC50 in assay [3] amounted to 5.4 µM.
On to `CC(=O)NC[C@H]1CC(c2ccc(-c3ccc(S(=O)(=O)C4(C)CN(C)C4)cc3)c(F)c2)=NO1` [Example 18, N-[[(5R)-3-[4-[4-(1,3-Dimethylazetidin-3-yl)sulfonylphenyl]-3-fluoro-phenyl]-4,5-dihydroisoxazol-5-yl]methyl]acetamide], for which the MIC in assay [1] and in assay [2] was 0.39 µM (≈ 0.179 µg/mL) throughout. Also, the concentration for half-maximal inhibition (IC50) in assay [3] stood at 13 µM.
On to `CS(=O)(=O)NC[C@H]1CC(c2ccc(-c3ccc(S(C)(=O)=O)cc3)c(F)c2)=NO1` [Example 19, N-({(5R)-3-[2-Fluoro-4′-(methanesulfonyl)[1,1′-biphenyl]-4-yl]-4,5-dihydro-1,2-oxazol-5-yl}methyl) methanesulfonamide], for which the MIC was 9.38 µM (≈ 4 µg/mL) in assay [1] and 6.25 µM (≈ 2.67 µg/mL) in assay [2]. In assay [3], the IC50 was greater than 100 µM.
Consider `N#Cc1ccc(-c2ccc(C3=NO[C@@H](COC(N)=O)C3)cc2F)cn1` [Example 20, {(5R)-3-[4-(6-Cyanopyridin-3-yl)-3-fluorophenyl]-4,5-dihydro-1,2-oxazol-5-yl}methyl carbamate], for which the MIC in assay [1] is 0.19 µM (≈ 0.0647 µg/mL); in assay [2], 0.39 µM (≈ 0.133 µg/mL). The concentration for half-maximal inhibition (IC50) in assay [3] stood at 7.2 µM.
For the molecule `CN1CC(C)(S(=O)(=O)c2ccc(-c3ccc(C4=NO[C@@H](CO)C4)cc3F)cc2)C1` [Example 21, {(5R)-3-[4′-(1,3-Dimethylazetidine-3-sulfonyl)-2-fluoro[1,1′-biphenyl]-4-yl]-4,5-dihydro-1,2-oxazol-5-yl}methanol], the MIC in assay [1] and in assay [2] was 1.56 µM (≈ 0.653 µg/mL) throughout. The IC50 in assay [3] was greater than 100 µM.
For `CN1CC(C)(S(=O)(=O)c2ccc(-c3c(F)cc(C4=NO[C@@H](Cn5ccnn5)C4)cc3F)cc2)C1` [Example 22, 1-({(5R)-3-[4′-(1,3-Dimethylazetidine-3-sulfonyl)-2,6-difluoro[1,1′-biphenyl]-4-yl]-4,5-dihydro-1,2-oxazol-5-yl}methyl)-1H-1,2,3-triazole], the MIC in assay [1] amounted to 0.49 µM (≈ 0.239 µg/mL); in assay [2] it was 0.29 µM (≈ 0.141 µg/mL). Moreover, the IC50 in assay [3] came to 25 µM.
As to `CC1(S(=O)(=O)c2ccc(-c3ccc(C4=NO[C@@H](Cn5ccnn5)C4)cc3F)cc2)CNC1` [Example 23, 1-({(5R)-3-[2-Fluoro-4′-(3-methylazetidine-3-sulfonyl)[1,1′-biphenyl]-4-yl]-4,5-dihydro-1,2-oxazol-5-yl}methyl)-1H-1,2,3-triazole], the results for the MIC in assay [1] and in assay [2] were 0.78 µM (≈ 0.355 µg/mL) and 1.56 µM (≈ 0.711 µg/mL), respectively. For the same molecule, the IC50 in assay [3] stood at 16 µM.
Take `CN1CC(C)(S(=O)(=O)c2ccc(-c3c(F)cc(C4=NO[C@@H](Cn5ccnn5)C4)cc3F)cn2)C1` [Example 24, 5-(2,6-Difluoro-4-{(5R)-5-[(1H-1,2,3-triazol-1-yl)methyl]-4,5-dihydro-1,2-oxazol-3-yl}phenyl)-2-(1,3-dimethylazetidine-3-sulfonyl)pyridine]: the MIC in assay [1] and in assay [2] was 3.12 µM (≈ 1.52 µg/mL) in each case. Besides, the IC50 in assay [3] came out at 76 µM.
Consider `CN1CC(CF)(S(=O)(=O)c2ccc(-c3ccc(C4=NO[C@@H](Cn5ccnn5)C4)cc3F)cc2)C1` [Example 25, 1-{[(5R)-3-{2-Fluoro-4′-[3-(fluoromethyl)-1-methylazetidine-3-sulfonyl][1,1′-biphenyl]-4-yl}-4,5-dihydro-1,2-oxazol-5-yl]methyl}-1H-1,2,3-triazole], for which the MIC is 0.09 µM (≈ 0.0439 µg/mL) in assay [1] and 0.19 µM (≈ 0.0926 µg/mL) in assay [2]. Moreover, in assay [3], the half-maximal inhibitory concentration (IC50) is 2.5 µM.
Consider `CN1CC(C)(S(=O)(=O)c2ccc(-c3ccc(C4=NO[C@@H](Cn5ccnn5)C4)c(F)c3F)cc2)C1` [Example 26, 1-({(5R)-3-[4′-(1,3-Dimethylazetidine-3-sulfonyl)-2,3-difluoro[1,1′-biphenyl]-4-yl]-4,5-dihydro-1,2-oxazol-5-yl}methyl)-1H-1,2,3-triazole], for which the MIC in assay [1] and in assay [2] was 0.39 µM (≈ 0.19 µg/mL) each time. In addition, the IC50 in assay [3] was 28 µM.
In the case of `CN1CC(C)(S(=O)(=O)c2ccc(-c3ccc(C4=NO[C@@H](CNC(=O)C5(C)CC5)C4)cc3F)cc2)C1` [Example 27, N-({(5R)-3-[4′-(1,3-Dimethylazetidine-3-sulfonyl)-2-fluoro[1,1′-biphenyl]-4-yl]-4,5-dihydro-1,2-oxazol-5-yl}methyl)-1-methylcyclopropane-1-carboxamide], the MIC in assay [1] and in assay [2] was 0.78 µM (≈ 0.39 µg/mL) each time. In addition, the IC50 in assay [3] turned out to be 37 µM.
Take `CN1CC(C)(S(=O)(=O)c2ccc(-c3ccc(C4=NO[C@@H](CNC(=O)C56CC(C5)C6)C4)cc3F)cc2)C1` [Example 28, N-({(5R)-3-[4′-(1,3-Dimethylazetidine-3-sulfonyl)-2-fluoro[1,1′-biphenyl]-4-yl]-4,5-dihydro-1,2-oxazol-5-yl}methyl)bicyclo[1.1.1] pentane-1-carboxamide]: the MIC in assay [1] is 0.78 µM (≈ 0.399 µg/mL); in assay [2], 1.56 µM (≈ 0.798 µg/mL). Also, the half-maximal inhibitory concentration (IC50) in assay [3] was determined as 62 µM.
In the case of `CN=S1(=O)CCC(F)(c2c(F)cc(C3=NO[C@@H](CNC(C)=O)C3)cc2F)CC1` (stereo partly drawn) [Example 29, N-{[(5R)-3-{3,5-Difluoro-4-[4-fluoro-1-(methylimino)-1-oxo-1λ^6-thian-4-yl]phenyl}-4,5-dihydro-1,2-oxazol-5-yl]methyl}acetamide], the MIC in assay [1] and in assay [2] was 1.56 µM (≈ 0.651 µg/mL) each time. In addition, in assay [3], the IC50 was greater than 100 µM.
`CN=S1(=O)CCN(c2c(F)cc(C3=NO[C@@H](Cn4ccnn4)C3)cc2F)CC1` [Example 31, 4-(2,6-Difluoro-4-{(5R)-5-[(1H-1,2,3-triazol-1-yl)methyl]-4,5-dihydro-l,2-oxazol-3-yl}phenyl)-1-(methylimino)-1λ^6-thiomorpholin-1-one]: the results for the MIC in assay [1] and in assay [2] were 5.47 µM (≈ 2.25 µg/mL) and 4.69 µM (≈ 1.93 µg/mL), respectively. In addition, the IC50 in assay [3] is greater than 100 µM.
As to `CN1CC(S(=O)(=O)c2ccc(-c3ccc(C4=NO[C@@H](Cn5ccnn5)C4)cc3F)cc2)C1` [Example 32, 1-({(5R)-3-[2-Fluoro-4′-(1-methylazetidine-3-sulfonyl)[1,1′-biphenyl]-4-yl]-4,5-dihydro-1,2-oxazol-5-yl}methyl)-1H-1,2,3-triazole], the results for the MIC in assay [1] and in assay [2] were 0.09 µM (≈ 0.041 µg/mL) and 0.065 µM (≈ 0.0296 µg/mL), respectively. In assay [3], the IC50 came to 0.77 µM.
